Source: US4642341A, “Carbapenem antibiotics” (priority 1985, dated 1987)
≈ marks a conversion by molar mass, not a printed value. Read-outs that look alike come from different tables or passages of the source.

How the values were obtained:
[1] = system: S. pneumoniae A-9585; assay: Minimum Inhibitory Concentration, tube dilution; format: cell-based; conditions: Streptococcus pneumoniae, A9585, overnight 37° C.
[2] = system: S. pyogenes A-9604; assay: Minimum Inhibitory Concentration, tube dilution; format: cell-based; conditions: Streptococcus pyogenes, A9604, overnight 37° C.
[3] = system: S. aureus A-9537; assay: Minimum Inhibitory Concentration, tube dilution; format: cell-based; conditions: Staphylococcus aureus, read-out: MIC
[4] = system: S. aureus A-9606 (Pen-res.); assay: Minimum Inhibitory Concentration, tube dilution; format: cell-based; conditions: Staphylococcus aureus
[5] = system: S. faecalis A20688; assay: Minimum Inhibitory Concentration, tube dilution; format: cell-based; conditions: Enterococcus faecalis
[6] = system: E. coli A15119; assay: Minimum Inhibitory Concentration, tube dilution; format: cell-based; conditions: Escherichia coli, A15119, 10^-4 dil.
[7] = system: E. coli A20341-1; assay: Minimum Inhibitory Concentration, tube dilution; format: cell-based; conditions: Escherichia coli, A203411, 10^-4
[8] = system: P. vulgaris A21559; assay: Minimum Inhibitory Concentration, tube dilution; format: cell-based; conditions: Proteus vulgaris, A21559, overnight 37° C.
[9] = system: P. rettgeri A22424; assay: Minimum Inhibitory Concentration, tube dilution; format: cell-based; conditions: Providencia rettgeri, overnight 37° C., read-out: MIC
[10] = system: P. aeruginosa A-9843A; assay: Minimum Inhibitory Concentration, tube dilution; format: cell-based; conditions: Pseudomonas aeruginosa, A9843A
[11] = system: H. influenzae A-9833; assay: Minimum Inhibitory Concentration, tube dilution; format: cell-based; conditions: Haemophilus influenzae, A9833
[12] = system: H. influenzae A20178; assay: Minimum Inhibitory Concentration, tube dilution; format: cell-based; conditions: Haemophilus influenzae, overnight 37° C.
[13] = system: H. influenzae A21518; assay: Minimum Inhibitory Concentration, tube dilution; format: cell-based; conditions: Haemophilus influenzae, overnight 37° C.
[14] = system: H. influenzae A21522; assay: Minimum Inhibitory Concentration, tube dilution; format: cell-based; conditions: Haemophilus influenzae, overnight 37° C.
[15] = system: B. fragilis A22696; assay: Minimum Inhibitory Concentration, tube dilution; format: cell-based; conditions: Bacteroides fragilis, overnight 37° C., read-out: MIC
[16] = system: S. aureus A-9606; assay: Protective effect, intramuscular treatment of infected mice; format: in vivo; conditions: Staphylococcus aureus, A9606, im; i.m.; challenge 1 × 10^9; read-out: PD50 /Treatment
Procedure: (§1) The PD50 (dose in mg/kg required to give protection to 50% of the infected mice) is indicated.
(§2) Treatment Schedule: Mice were treated i.m. with drugs 0 and 2 hours
(§3) 3.5 hours (all others); 5 mice were used for each test.

[17] = system: K. pneumoniae A-9664; assay: as above; format: in vivo; conditions: Klebsiella pneumoniae, A9664, im; i.m.; challenge 7 × 10^6; read-out: PD50 /Treatment
Procedure: as §1, §2, §3

[18] = system: P. rettgeri A15167-2; assay: as above; format: in vivo; conditions: Providencia rettgeri, A151672, im; i.m.; challenge 3 × 10^7; read-out: PD50 /Treatment
Procedure: as §1, §2, §3

[19] = system: M. morganii A15149; assay: as above; format: in vivo; conditions: Morganella morganii, A15149, im; i.m.; challenge 7 × 10^5; read-out: PD50 /Treatment
Procedure: as §1, §2, §3

[20] = system: S. marcescens A20335; assay: as above; format: in vivo; conditions: Serratia marcescens, A20335, im; i.m.; challenge 9 × 10^6; read-out: PD50 /Treatment
Procedure: as §1, §2, §3

[21] = system: P. aeruginosa A-9843a; assay: as above; format: in vivo; conditions: Pseudomonas aeruginosa, A9843A, im; challenge 3 × 10^4; Historical data; read-out: PD50 /Treatment
Procedure: as §1, §2, §3

[22] = system: P. aeruginosa A20481; assay: as above; format: in vivo; conditions: Pseudomonas aeruginosa, A20481, im; i.m.; challenge 3 × 10^4; read-out: PD50 /Treatment
Procedure: as §1, §2, §3

[23] = system: P. aeruginosa A20599; assay: as above; format: in vivo; conditions: Pseudomonas aeruginosa, A20599, im; i.m.; challenge 9 × 10^4; read-out: PD50 /Treatment
Procedure: as §1, §2, §3

[24] = Blood levels in mice after intramuscular administration; format: in vivo; conditions: mouse, im, 20 mg/kg i.m.
Source text: a single test; 4 mice used per compound.

[25] = Urinary recovery in mice after intramuscular administration; format: in vivo; conditions: mouse, urine, im, 20 mg/kg, 20 mg/kg i.m., read-out: Percentage of Dose Recovered (urine)
Source text: | a single test; 4 mice per compound.

[26] = Half-life in phosphate buffer pH 7.4; format: physicochemical; conditions: phosphate buffer
Procedure: To a solution of p-nitrobenzyl 3-[2-(1-pyridinium)ethylthio)]-6α[1-(R)-hydroxyethyl]-7-oxo-1-azabicyclo(3.2.0)hept-2-ene-carboxylate diphenylphosphate (0.16 g, 0.22 mmol) in wet tetrahydrofuran (10mL) was added ether (10mL), potassium phosphate monobasic-sodium hydroxide buffer pH 7.4 (16 mL, 0.05 M) and 10% palladium on charcoal (0.16 g). The resulting mixture was hydrogenated under 40 psi for 1 h at 25° C. The two phases were separated and the organic phase was extracted with water (2×3 mL). The aqeuous solutions were combined, washed with ether (2×10 ml) and poured on top of a column (1.5×6.2 cm) pf μ-bondapak C-18 after the traces of organic solvents have been removed under vacuum. Elution of the column with water gave after lyophylization of the appropriate fractions a yellowish powder 0.062 g (84%), ir (KBr) .nu.max : 3700-3000 (OH), 1755 (C--O of β-lactam), 1630 (pyridinium), 1590 cm^-1 (carboxylate), ^1 Hmr (D2 O): 1.22 (3H, d, J=6.4 Hz, CH3 CHOH), 2.92 (d, J=9.1 Hz, H-4), 2.97 (d, J=9.1 Hz, H-4), 3.20 (dd, J=2.5 Hz, J=6.1 Hz, H-6), 3.44 (t, J=6.0 Hz, CH2 S), 3.93 (dd, J=9.1 Hz, J=2.5 Hz, H-5), 4.82 (t, J=6.0 Hz, CH2 N^+), 8.04 (m, Hm of pyridinium), 8.5 (m, Hp of pyridinium), 8.82 (dd, J=3.2. Hz, J=1.1 Hz, Ho of pyridinium), uv (H2 O) λ max : 259 (ε5800), 296 (ε7030) mμ, .tau.1/2 =13.5 h (measured at a concentration of 10^-4 M in phosphate buffer pH 7.4 at 36.8° C.).

[27] = in vivo; conditions: mouse
[28] = system: E. cloacae A-9569; assay: animal or person; conditions: Enterobacter cloacae, A9569, in Mus musculus, im, read-out: PD50 /Treatment
Procedure: as §1, §2, §3

[29] = system: P. mirabilis A-9900; assay: animal or person; conditions: Proteus mirabilis, A9900, in Mus musculus, im, read-out: PD50 /Treatment, i.m.; challenge 4 × 10^6
Procedure: as §1, §2, §3

[30] = Toxicity after intracranial administration to mice; conditions: mouse, in vivo
[31] = system: S. aureus A15097 (Meth-res.); assay: Minimum Inhibitory Concentration, tube dilution; format: cell-based; conditions: Staphylococcus aureus, table 6
[32] = system: K. pneumoniae A-9664; assay: Minimum Inhibitory Concentration, tube dilution; format: cell-based; conditions: Klebsiella pneumoniae, A9664, overnight 37° C.; table 6
[33] = system: P. mirabilis A-9900; assay: Minimum Inhibitory Concentration, tube dilution; format: cell-based; conditions: Proteus mirabilis, A9900, overnight 37° C.; table 6
[34] = system: S. marcescens A20019; assay: Minimum Inhibitory Concentration, tube dilution; format: cell-based; conditions: Serratia marcescens, A20019, overnight 37° C.; table 6
[35] = system: P. aeruginosa A21213; assay: Minimum Inhibitory Concentration, tube dilution; format: cell-based; conditions: Pseudomonas aeruginosa, A21213, overnight 37° C.; table 6; read-out: MIC
[36] = system: M. morganii A15153; assay: Minimum Inhibitory Concentration, tube dilution; format: cell-based; conditions: Morganella morganii, A15153, overnight 37° C.; table 6
[37] = system: P. mirabilis A9900; assay: Protective effect, intramuscular treatment of infected mice (table 8); format: in vivo; conditions: Proteus mirabilis, A9900, im; i.m. 0 and 2 h post-infection; 4×10^7 organisms i.p.; read-out: PD50 /treatment
Source text: as §1

[38] = system: P. aeruginosa A9843A; assay: animal or person; format: in vivo, mice; conditions: Pseudomonas aeruginosa, in Mus musculus, im, read-out: PD50 /treatment
Source text: as §1

[39] = system: various Pseudomonas species; conditions: cited from earlier work

SMILES: C[C@@H](O)[C@H]1C(=O)N2C(C(=O)[O-])=C(SCC[n+]3ccccc3)C[C@H]12 [Example 1, 3-[2-(1-Pyridinium)ethylthio]-6α-[1-(R)-hydroxyethyl]-7-oxo-1-azabicyclo (3.2.0)-hept-2-ene-2-carboxylate]
- MIC [1]: 2 ng/mL (≈ 0.00598 µM)
- MIC [2]: 8 ng/mL (≈ 0.0239 µM)
- MIC ([3]; A9537, + 50% serum): 0.03 µg/mL
- MIC ([3]; A9537, overnight 37° C.): 0.008 µg/mL (≈ 0.0239 µM)
- MIC ([4]; Pen-res.): 0.016 µg/mL (≈ 0.0478 µM)
- MIC ([5]; A20688): 0.5 µg/mL (≈ 1.5 µM)
- MIC [6]: 0.03 µg/mL (≈ 0.0897 µM)
- MIC [7]: 0.03 µg/mL (≈ 0.0897 µM)
- MIC [8]: 0.03 µg/mL (≈ 0.0897 µM)
- MIC [9]: 0.5 µg/mL (≈ 1.5 µM)
- MIC [10]: 2 µg/mL (≈ 5.98 µM)
- MIC [11]: 8 µg/mL (≈ 23.9 µM)
- MIC [12]: 8 µg/mL (≈ 23.9 µM)
- MIC [13]: 8 µg/mL (≈ 23.9 µM)
- MIC [14]: 8 µg/mL (≈ 23.9 µM)
- MIC [15]: 0.5 µg/mL (≈ 1.5 µM)
- ED50 [16]: 0.11 mg/kg
- ED50 [17]: 7.7 mg/kg
- ED50 [18]: 5.7 mg/kg
- ED50 [19]: 4.4 mg/kg
- ED50 [20]: 3.3 mg/kg
- ED50 [21]: 0.8 mg/kg
- ED50 [22]: 0.8 mg/kg
- ED50 [23]: 3 mg/kg
- AUC [24]: 6400 ng·h/mL
- half-life [24]: 9 min
- dose excreted at 3 h ([25]; 0-3 hours): 23.3%
- dose excreted at 24 h ([25]; 0-24 hours): 24.2 ± 5.3%
- dose excreted at 6 h ([25]; 3-6 hours): 0.5%
- dose excreted at 24 h ([25]; 6-24 hours): 0.4%
- half-life at 100 µM ([26]; pH 7.4, τ1/2 (half-life)): 810 min
- NOAEL [27]: > 40 mg/kg
- ED50 [28]: 0.4 mg/kg
- ED50 [29]: 19 mg/kg
- LD50 [30]: > 40 mg/kg

SMILES: C[C@@H](O)[C@H]1C(=O)N2C(C(=O)[O-])=C(SCC[n+]3cccc(N)c3)C[C@H]12 [Example 14, (5R, 6S)-3-[2-(3-aminopyridinio)ethylthio]-6-[1-(R)-hydroxyethyl]-7-oxo-1-azabicyclo[3.2.0]-hept-2-ene-2-carboxylate]
- MIC ([1]; table 6): 2 ng/mL (≈ 0.00572 µM)
- MIC ([2]; table 6): 4 ng/mL (≈ 0.0114 µM)
- MIC ([3]; A9537, 50% serum, table 6): 0.016 µg/mL (≈ 0.0458 µM)
- MIC ([3]; A9537, overnight 37° C., table 6): 0.008 µg/mL (≈ 0.0229 µM)
- MIC ([4]; Pen-res, table 6): 0.008 µg/mL (≈ 0.0229 µM)
- MIC [31]: 8 ng/mL (≈ 0.0229 µM)
- MIC ([5]; A20688, overnight 37° C., table 6, read-out: MIC): 0.5 µg/mL (≈ 1.43 µM)
- MIC [32]: 0.06 µg/mL (≈ 0.172 µM)
- MIC [33]: 0.03 µg/mL (≈ 0.0859 µM)
- MIC ([8]; table 6): 0.016 µg/mL (≈ 0.0458 µM)
- MIC [34]: 0.06 µg/mL (≈ 0.172 µM)
- MIC ([10]; overnight 37° C., table 6, read-out: MIC): 2 µg/mL (≈ 5.72 µM)
- MIC [35]: 1 µg/mL (≈ 2.86 µM)
- MIC [36]: 0.03 µg/mL (≈ 0.0859 µM)
- ED50 [37]: 5.4 mg/kg
- ED50 [38]: 0.78 mg/kg
- half-life ([26]; pH 7.4, t1/2 (half-life)): 1110 min

SMILES: C[C@@H](O)[C@H]1C(=O)N2C(C(=O)O)=C(SCCN)C[C@H]12 [Thienamycin, thienamycin]
- activity against various Pseudomonas species [39]: notable activity
